Results reported in patent US6706663B2, “Herbicidal 3-heterocyclic substituted benzisothiazole and benzisoxazole compounds” (Wyeth, priority 2000, dated 2004).

Columns and labels:
[1] = system: CASOB (Cassia obtusifolia); assay: Preemergence herbicidal evaluation; format: in vivo, L.; settings: preemergence, rated 4-5 weeks after treatment
Method in brief: (§1)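 Each species was sown separately in potting soil over roughly one inch of soil, and the surface sprayed with compound dissolved in aqueous acetone. Assessment used a 0–9 visual scale against a control after four to five weeks.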

[2] = system: AMBEL (Ambrosia artemisifolia); assay: Preemergence herbicidal evaluation; format: in vivo, L.; settings: preemergence, rated 4-5 weeks after treatment
Method in brief: as §1

[3] = system: CHEAL (Chenopodium album); assay: Preemergence herbicidal evaluation; format: in vivo, L.; settings: preemergence, rated 4-5 weeks after treatment
Method in brief: as §1

SETVI (Setaria viridis) [4] = assay: Postemergence herbicidal evaluation; format: in vivo, (L.) Beau
Method in brief: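 Ratings use a 0-9 visual scale covering stand, vigor, malformation, size, chlorosis and appearance versus a control, scored 4-5 weeks post-spray. Roughly two-week-old seedlings received about 0.0040-1.000 kg/ha active, applied in 50/50 acetone/water with 0.5% TWEEN 20. Multiple tests per compound were averaged.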

[5] = system: SAGPY (Sagittaria pygmaea); assay: Flooded paddy, preemergence weed control; format: in vivo, L.; settings: rated 3-4 weeks after treatment, 0-9 rating scale
Method in brief: (§2)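 Preemergence, flooded: propagules planted at 0.5 cm depth in silt loam, water level maintained at 1.5 to 3 cm over soil, containers kept on greenhouse benches. Activity scored 0-9 by eye relative to a control plant.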

[6] = system: ABUTH (Abutilon theophrasti); assay: Postemergence herbicidal evaluation; format: in vivo, Medic.
Method in brief: (§3)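 Seedlings grown for about two weeks were sprayed postemergence and then kept under standard greenhouse care. Injury was rated visually 4–5 weeks after treatment on a 0–9 scale against untreated controls, and ratings from repeat tests were averaged.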

[7] = system: TRZAWR (Wheat, Winter, cv Riband); assay: Postemergence herbicidal evaluation; format: in vivo, Triticum aestivum
Method in brief: as §3

GALAP (Galium aparine) [8] = assay: Postemergence herbicidal evaluation; format: in vivo
Method in brief: as §3

[9] = system: IPOHE (Ipomoea hederacea); assay: Postemergence herbicidal evaluation; format: in vivo, (L.) Jacq.
Method in brief: as §3

[10] = system: CYPSE (Cyperus serotinus); assay: Flooded paddy, preemergence weed control; format: in vivo, Rottb.; settings: rated 3-4 weeks after treatment, 0-9 rating scale
Method in brief: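 Herbicidal effect was scored visually on a 0–9 scale against an untreated control 3–4 weeks after treatment. Compounds were applied preemergence as 50/50 v/v aqueous/acetone mixtures into flood water (1.5–3 cm deep over silt loam), at roughly 0.0080 to 0.1250 kg/ha active ingredient.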

SETVI (Setaria viridis) [11] = assay: Preemergence herbicidal evaluation; format: in vivo, (L.) Beau; settings: preemergence, rated 4-5 weeks after treatment
Method in brief: as §1

[12] = system: ECHCG (Echinochloa crus-galli); assay: Preemergence herbicidal evaluation; format: in vivo, (L.) Beau; settings: preemergence, rated 4-5 weeks after treatment
Method in brief: as §1

[13] = system: CASOB (Cassia obtusifolia); assay: Postemergence herbicidal evaluation; format: in vivo, L.
Method in brief: as §3

[14] = system: AMBEL (Ambrosia artemisifolia); assay: Postemergence herbicidal evaluation; format: in vivo, L.
Method in brief: as §3

[15] = system: CHEAL (Chenopodium album); assay: Postemergence herbicidal evaluation; format: in vivo, L.
Method in brief: as §3

CYPIR (Cyperus iria) = assay: Flooded paddy, preemergence weed control; format: in vivo; settings: rated 3-4 weeks after treatment, 0-9 rating scale
Method in brief: as §2

[16] = system: MOOVA (Monochoria vaginalis); assay: Flooded paddy, preemergence weed control; format: in vivo, Presl.; settings: rated 3-4 weeks after treatment, 0-9 rating scale
Method in brief: as §2

ORYSAT (Rice, Tebonnet) [17] = assay: Preemergence herbicidal evaluation; format: in vivo, Oryza sativa, (L.) Tebonnet; settings: preemergence, rated 4-5 weeks after treatment
ORYSAT (Rice, Tebonnet) [18] = assay: Postemergence herbicidal evaluation; format: in vivo, Oryza sativa, (L.) Tebonnet
Method in brief: as §3

GALAP (Galium aparine) [19] = assay: Preemergence herbicidal evaluation; format: in vivo; settings: preemergence, rated 4-5 weeks after treatment
Method in brief: as §1

CCOC(=O)C1CS[C@H](c2nsc3ccc(-n4c(=O)cc(C(F)(F)F)n(C)c4=O)cc23)N1 (stereo partly drawn) [Compound 2, ethyl (R)-2-[5-[3,6-dihydro-3-methyl-2,6-dioxo-4-(trifluoromethyl)-1(2H)-pyrimidinyl]-1,2-benzisothiazol-3-yl]-4-thiazolidinecarboxylate]
CASOB preemergence herbicidal rating ([1]; Rate 0.0620 kg/ha): 5.0
CASOB preemergence herbicidal rating ([1]; Rate 0.1250 kg/ha): 7.5
CASOB preemergence herbicidal rating ([1]; Rate 0.2500 kg/ha): 7.0
AMBEL preemergence herbicidal rating ([2]; Rate 0.0620 kg/ha): 7.0
AMBEL preemergence herbicidal rating ([2]; Rate 0.1250 kg/ha): 8.0
AMBEL preemergence herbicidal rating ([2]; Rate 0.2500 kg/ha): 9.0
CHEAL preemergence herbicidal rating ([3]; Rate 0.0620 kg/ha): 9.0
CHEAL preemergence herbicidal rating ([3]; Rate 0.1250 kg/ha): 9.0
CHEAL preemergence herbicidal rating ([3]; Rate 0.2500 kg/ha): 9.0
Postemergence herbicidal rating, SETVI (SETVI (Setaria viridis) [4]; rate 0.0320 kg/ha): 6.0
Postemergence herbicidal rating, SETVI (SETVI (Setaria viridis) [4]; rate 0.0620 kg/ha): 7.0
herbicidal rating, SAGPY ([5]; rate 0.0320 kg/ha): 0.0
herbicidal rating, SAGPY ([5]; rate 0.1250 kg/ha): 0.0
Postemergence herbicidal rating, ABUTH ([6]; rate 0.0320 kg/ha): 9.0
Postemergence herbicidal rating, ABUTH ([6]; rate 0.0620 kg/ha): 9.0
Postemergence herbicidal rating, TRZAWR ([7]; rate 0.0320 kg/ha): 5.0
Postemergence herbicidal rating, TRZAWR ([7]; rate 0.0620 kg/ha): 6.5
Postemergence herbicidal rating, GALAP (GALAP (Galium aparine) [8]; rate 0.0320 kg/ha): 5.0
Postemergence herbicidal rating, GALAP (GALAP (Galium aparine) [8]; rate 0.0620 kg/ha): 6.0
Postemergence herbicidal rating, IPOHE ([9]; rate 0.0320 kg/ha): 9.0
Postemergence herbicidal rating, IPOHE ([9]; rate 0.0620 kg/ha): 9.0
herbicidal rating, CYPSE ([10]; rate 0.0320 kg/ha): 0.0
herbicidal rating, CYPSE ([10]; rate 0.1250 kg/ha): 0.0
SETVI preemergence herbicidal rating (SETVI (Setaria viridis) [11]; Rate 0.0620 kg/ha): 8.0
SETVI preemergence herbicidal rating (SETVI (Setaria viridis) [11]; Rate 0.1250 kg/ha): 8.0
SETVI preemergence herbicidal rating (SETVI (Setaria viridis) [11]; Rate 0.2500 kg/ha): 9.0
ECHCG preemergence herbicidal rating ([12]; Rate 0.0620 kg/ha): 2.5
ECHCG preemergence herbicidal rating ([12]; Rate 0.1250 kg/ha): 6.0
ECHCG preemergence herbicidal rating ([12]; Rate 0.2500 kg/ha): 8.0
Postemergence herbicidal rating, CASOB ([13]; rate 0.0320 kg/ha): 4.0
Postemergence herbicidal rating, CASOB ([13]; rate 0.0620 kg/ha): 4.0
Postemergence herbicidal rating, AMBEL ([14]; rate 0.0320 kg/ha): 7.0
Postemergence herbicidal rating, AMBEL ([14]; rate 0.0620 kg/ha): 9.0
Postemergence herbicidal rating, CHEAL ([15]; rate 0.0320 kg/ha): 9.0
Postemergence herbicidal rating, CHEAL ([15]; rate 0.0620 kg/ha): 9.0
herbicidal rating, CYPIR (CYPIR (Cyperus iria); rate 0.0320 kg/ha): 0.0
herbicidal rating, CYPIR (CYPIR (Cyperus iria); rate 0.1250 kg/ha): 2.0
herbicidal rating, MOOVA ([16]; rate 0.0320 kg/ha): 6.0
herbicidal rating, MOOVA ([16]; rate 0.1250 kg/ha): 9.0
ORYSAT preemergence herbicidal rating (ORYSAT (Rice, Tebonnet) [17]; Rate 0.0620 kg/ha): 3.0
ORYSAT preemergence herbicidal rating (ORYSAT (Rice, Tebonnet) [17]; Rate 0.1250 kg/ha): 6.0
ORYSAT preemergence herbicidal rating (ORYSAT (Rice, Tebonnet) [17]; Rate 0.2500 kg/ha): 7.0
Postemergence herbicidal rating, ORYSAT (ORYSAT (Rice, Tebonnet) [18]; rate 0.0320 kg/ha): 5.0
Postemergence herbicidal rating, ORYSAT (ORYSAT (Rice, Tebonnet) [18]; rate 0.0620 kg/ha): 6.5
GALAP preemergence herbicidal rating (GALAP (Galium aparine) [19]; Rate 0.0620 kg/ha): 5.0
GALAP preemergence herbicidal rating (GALAP (Galium aparine) [19]; Rate 0.1250 kg/ha): 9.0
GALAP preemergence herbicidal rating (GALAP (Galium aparine) [19]; Rate 0.2500 kg/ha): 9.0
